From patent US20250352555A1, “METHOD OF INCREASING IMMUNE CELL ACTIVATION AND/OR TREATING CANCER USING DIBENZOXAZEPINONES” (VASCULAR THERAPEUTICS PTY LTD, priority 2022, published 2025) come the findings set out here.

One data set deals with p-ERK (Thr^202/Tyr^204). In words: Western blotting for p-ERK, MeWo melanoma cells. Format: cell-based, human. Conditions: 10 or 100 nM, 24 h. As to the method:
Western blotting. Cells were treated with compounds and times indicated and total cell lysates were prepared in RIPA buffer. Lysates (10 μg) were resolved by SDS-PAGE and transferred to Immobilon-P polyvinylidene difluoride (PVDF) membranes (Millipore, USA).
Membranes were blocked with 5% skim milk and incubated with rabbit monoclonal anti-c-Jun (Abcam, cat. no. ab32137; mouse, rat and human reactive) antibody, rabbit monoclonal anti-PD-1 (Abcam, cat. no. ab214421) antibody, mouse monoclonal β-actin antibody (Sigma-Aldrich, cat. no. A5316), anti-phospho-SAPK/JNK (Thr^183/Tyr^185) (98F2) (CST, cat. no. 4671) antibody, anti-phospho-p44/42 MAPK (ERK1/2) (Thr^202/Tyr^204) (D13.14.4E) (CST, cat. no. 4370) antibody, anti-phospho-p38 MAPK (Thr^180/Tyr^182) (D3F9) (CST, cat. no. 4511) antibody, anti-SAPK/JNK antibody (CST, cat. no. 9252), anti-p44/42 MAPK (ERK1/2) (137F5) antibody (CST, cat. no. […] Chemiluminescence was detected using the Western Lightning Chemiluminescence system (Thermo Scientific, USA) and ImageQuant™ LAS 4000 biomolecular imager (GE Healthcare Life Sciences, USA). Band intensity in images generated with the LAS 4000 was quantified using NIH Image J.
The effect of BT2 on ERK phosphorylation (p-ERK) was evaluated in human melanoma cells given that MAP kinase activation is key to melanoma progression and the paucity of clinically approved ERK inhibitors. […]
(In general: In western blotting, separated proteins are transferred to a membrane and probed.)

In the next data set the test system is MeWo cells. In words: Migration assay (scratch), MeWo. In kind it is cell-based, human. Conditions: 1 μM, 48 h, with greater potency than SCH772984. The procedure: Migration assays. Cells were grown in medium containing 10% FBS in 6-well plates. The following day the cells were scratched with a sterile toothpick, washed with PBS, and incubated in medium containing 10% FBS and vehicle, BT2 or SCH772984 at 1 μM. At 0, 24 h and 48 h the cells were photographed under a 4× objective using an Olympus CKX41 microscope. To assess the effect of BT2 on melanoma cell migration, A375 and MeWo cells were incubated with 1 μM of BT2 or SCH772984, and A375 and MeWo migration into the denuded zone was quantified after 24 or 48 h, respectively.

The test system of data set [1] is human melanoma (MDA-MB-435 cells). In words: Melanoma growth in SCID mice bearing MDA-MB-435 xenograft. In kind it is in vivo, mouse. Conditions: 5 days-on/2 days-off; for tumor growth (volume): from Day 16. As to the method:
In experiments with SCID mice, 5 week old CB17/lcr-Prkdcscid/lcrlcoCrl mice (sourced from Charles River Laboratories, USA) were inoculated s.c. with human MDA-MB-435 cells (2.5×10^6 cells/animal in 100 μl PBS) in the third mammary fat pad on Day 0. These cells were also sourced from ATCC. BT2 was suspended at 9.6 mg/ml in vehicle (saline containing 0.5% (v/v) Tween 80 and 0.01% (v/v) DMSO) and sonicated. Vehicle or BT2 were administered i.p. or intratumorally (i.t.) 20 mg/kg (i.t.) or 200 mg/kg (i.p.), once a day on a 5 days-on/2 days-off schedule. Treatment commenced on Day 16 and ended on Day 43. Tumor growth and body weight data is sourced from the animal study described in Li et al (Li et al., 2019) with the same vehicle group.
Tumors were measured by length and width in mm twice per week for MDA-MB-435 in SCID mice and by length, width and height in mm once per day for B16F10 in C57BL/6J mice. Tumor volumes were calculated using formula V=(L×W×H×π)/6 (B16F10) or V=L×W×W/2 (MDA-MB-435). If a second tumor was detected in an animal, both tumor volumes were measured and their volumes combined. Animal protocols were approved by the Explora Biolabs' Institutional Animal Care and Use Committee (IACUC) and the UNSW Animal Care and Ethics Committee.
BT2's ability to inhibit melanoma growth was investigated in a murine xenograft model. Immunocompromised SCID mice (C.B.17/lcr-Prkdcscid/lcrlcoCrl) bearing human melanoma (MDA-MB-435 cells, also mutant BRAF^V600E) were treated with 20 mg/kg BT2 intratumorally (i.t.) on a 5 days-on/2 days-off regime (FIG. 5A).
To assess the effect of BT2 when delivered systemically (rather than locally) in the same immunodeficient mouse model, C.B.17 SCID mice bearing s.c. MDA-MB-435 tumors were given BT2 200 mg/kg or vehicle i.p. once a day on a 5 days-on/2 days-off schedule. Treatment commenced on Day 16 (FIG. 7A).

Another data set relates to A375 cells. Nature of the data set: Invasion assay (Matrigel), A375. Conditions: 1 μM, 24 h, with greater potency than SCH772984. Format: cell-based, human. The procedure: Invasion assays. Cells were grown in medium containing 10% FBS in 24-well plates. The following day the cells were scratched with a sterile toothpick, washed with PBS, and overlayed with 90% Matrigel (cat. no. 354230, Corning) (200 μl/well) containing vehicle, BT2 or SCH772984 at 1 μM. The cells were immediately photographed under a 10× objective using an Olympus CKX41 microscope, incubated at 37° C. for 1 h, and medium (800 μl/well) containing 10% FBS with vehicle, BT2 or SCH772984 at 1 μM was added. After 24 or 48 h, the cells were again photographed under a 10× objective using the same microscope. To assess the effect of BT2 on melanoma cell migration, A375 and MeWo cells were incubated with 1 μM of BT2 or SCH772984, and A375 and MeWo migration into the denuded zone was quantified after 24 or 48 h, respectively.

Setting [2] is: MDA-MB-435, 20 mg/kg i.t. once a day.

In the case of `CCOC(=O)Nc1ccc2c(c1)C(=O)N(CC)c1ccccc1O2` [BT2, (10-ethyl-11-oxo-10,11-dihydro-dibenzo[b,f][1,4]oxazepin-2-yl)-carbamic acid ethyl ester], in the data set on p-ERK (Thr^202/Tyr^204), the “ERK phosphorylation (p-ERK, Western blot)” value is recorded as “suppressed ERK phosphorylation”. Moreover, the “migration into the denuded zone” value with MeWo cells is “suppressed melanoma migration”. Further, in data set [1] (setting [2]), the body weight entry is “no adverse effect on body weight” and the “tumor growth (volume)” value is “caused growth inhibition”. For the same compound, the “tumor growth (volume)” value in data set [1] (MDA-MB-435, 200 mg/kg i.p. once a day) was “no inhibition was observed”. Moreover, the “invasion into the denuded zone of Matrigel” value in the data set with A375 cells was “suppressed”.
